Laboratory results from the NIST ThermoML archive (doi:10.1021/acs.jced.7b00221).
± gives the expanded uncertainty stated by the source.

Test: xn = mol fraction of the nth substance listed
Conditions: 100 kPa, Liquid; for viscosity: Cone and plate viscometry; for mass density: Vibrating tube method

Structure (SMILES): CCCCCCn1cc[n+](C)c1.O=[N+]([O-])c1cn[n-]c1 [1-hexyl-3-methylimidazolium 4-nitropyrazolide] + CCCCCCCCCCCCCC[P+](CCCCCC)(CCCCCC)CCCCCC.O=S(=O)([N-]S(=O)(=O)C(F)(F)F)C(F)(F)F
- viscosity (278.15 K, x1 = 0.101): 1201 ± 160 mPa·s
- viscosity (278.15 K, x1 = 0.299): 1360 ± 180 mPa·s
- viscosity (278.15 K, x1 = 0.5): 1582 ± 220 mPa·s
- viscosity (278.15 K, x1 = 0.7): 2039 ± 280 mPa·s
- viscosity (278.15 K, x1 = 0.9): 2649 ± 380 mPa·s
- viscosity (283.15 K, x1 = 0.101): 816 ± 110 mPa·s
- viscosity (283.15 K, x1 = 0.299): 914 ± 120 mPa·s
- viscosity (283.15 K, x1 = 0.5): 1045 ± 140 mPa·s
- viscosity (283.15 K, x1 = 0.7): 1290 ± 180 mPa·s
- viscosity (283.15 K, x1 = 0.9): 1540 ± 210 mPa·s
- mass density (283.15 K, x1 = 0.25): 1081.8 ± 4 kg/m3
- mass density (283.15 K, x1 = 0.5): 1090.7 ± 4 kg/m3
- mass density (283.15 K, x1 = 0.749): 1105.6 ± 4 kg/m3
- viscosity (288.15 K, x1 = 0.101): 570 ± 74 mPa·s
- viscosity (288.15 K, x1 = 0.299): 629 ± 82 mPa·s
- viscosity (288.15 K, x1 = 0.5): 707 ± 92 mPa·s
- viscosity (288.15 K, x1 = 0.7): 840 ± 110 mPa·s
- viscosity (288.15 K, x1 = 0.9): 935 ± 120 mPa·s
- mass density (288.15 K, x1 = 0.25): 1078.2 ± 4 kg/m3
- mass density (288.15 K, x1 = 0.5): 1087.1 ± 4 kg/m3
- mass density (288.15 K, x1 = 0.749): 1102 ± 4 kg/m3
- viscosity (293.15 K, x1 = 0.101): 410 ± 52 mPa·s
- viscosity (293.15 K, x1 = 0.299): 445 ± 57 mPa·s
- viscosity (293.15 K, x1 = 0.5): 492 ± 63 mPa·s
- viscosity (293.15 K, x1 = 0.7): 566 ± 73 mPa·s
- viscosity (293.15 K, x1 = 0.9): 597 ± 77 mPa·s
- mass density (293.15 K, x1 = 0.25): 1074.6 ± 4 kg/m3
- mass density (293.15 K, x1 = 0.5): 1083.6 ± 4 kg/m3
- mass density (293.15 K, x1 = 0.749): 1098.5 ± 4 kg/m3
- mass density (295.15 K, x1 = 0.25): 1073.1 ± 4 kg/m3
- mass density (295.15 K, x1 = 0.5): 1082.2 ± 4 kg/m3
- mass density (295.15 K, x1 = 0.749): 1097.2 ± 4 kg/m3
- viscosity (298.15 K, x1 = 0.101): 302 ± 38 mPa·s
- viscosity (298.15 K, x1 = 0.299): 323 ± 41 mPa·s
- viscosity (298.15 K, x1 = 0.5): 352 ± 44 mPa·s
- viscosity (298.15 K, x1 = 0.7): 395 ± 50 mPa·s
- viscosity (298.15 K, x1 = 0.9): 400 ± 51 mPa·s
- mass density (298.15 K, x1 = 0.25): 1071 ± 4 kg/m3
- mass density (298.15 K, x1 = 0.5): 1080.1 ± 4 kg/m3
- mass density (298.15 K, x1 = 0.749): 1095.2 ± 4 kg/m3
- viscosity (303.15 K, x1 = 0.101): 228 ± 28 mPa·s
- viscosity (303.15 K, x1 = 0.299): 241 ± 30 mPa·s
- viscosity (303.15 K, x1 = 0.5): 259 ± 32 mPa·s
- viscosity (303.15 K, x1 = 0.7): 285 ± 36 mPa·s
- viscosity (303.15 K, x1 = 0.9): 278 ± 35 mPa·s
- mass density (303.15 K, x1 = 0.25): 1067.4 ± 4 kg/m3
- mass density (303.15 K, x1 = 0.5): 1076.6 ± 4 kg/m3
- mass density (303.15 K, x1 = 0.749): 1091.7 ± 4 kg/m3
- viscosity (308.15 K, x1 = 0.101): 175 ± 21 mPa·s
- viscosity (308.15 K, x1 = 0.299): 184 ± 23 mPa·s
- viscosity (308.15 K, x1 = 0.5): 195 ± 24 mPa·s
- viscosity (308.15 K, x1 = 0.7): 211 ± 26 mPa·s
- viscosity (308.15 K, x1 = 0.9): 200 ± 25 mPa·s
- mass density (308.15 K, x1 = 0.25): 1063.8 ± 4 kg/m3
- mass density (308.15 K, x1 = 0.5): 1073.1 ± 4 kg/m3
- mass density (308.15 K, x1 = 0.749): 1088.3 ± 4 kg/m3
- viscosity (313.15 K, x1 = 0.101): 138 ± 17 mPa·s
- viscosity (313.15 K, x1 = 0.299): 142 ± 17 mPa·s
- viscosity (313.15 K, x1 = 0.5): 150 ± 18 mPa·s
- viscosity (313.15 K, x1 = 0.7): 160 ± 20 mPa·s
- viscosity (313.15 K, x1 = 0.9): 149 ± 18 mPa·s
- mass density (313.15 K, x1 = 0.25): 1060.3 ± 4 kg/m3
- mass density (313.15 K, x1 = 0.5): 1069.6 ± 4 kg/m3
- mass density (313.15 K, x1 = 0.749): 1084.9 ± 4 kg/m3
- viscosity (318.15 K, x1 = 0.101): 110 ± 13 mPa·s
- viscosity (318.15 K, x1 = 0.299): 113 ± 14 mPa·s
- viscosity (318.15 K, x1 = 0.5): 118 ± 14 mPa·s
- viscosity (318.15 K, x1 = 0.7): 124 ± 15 mPa·s
- viscosity (318.15 K, x1 = 0.9): 113 ± 14 mPa·s
- mass density (318.15 K, x1 = 0.25): 1056.8 ± 4 kg/m3
- mass density (318.15 K, x1 = 0.5): 1066.2 ± 4 kg/m3
- mass density (318.15 K, x1 = 0.749): 1081.6 ± 4 kg/m3
- viscosity (323.15 K, x1 = 0.101): 90 ± 11 mPa·s
- viscosity (323.15 K, x1 = 0.299): 91 ± 11 mPa·s
- viscosity (323.15 K, x1 = 0.5): 94 ± 11 mPa·s
- viscosity (323.15 K, x1 = 0.7): 99 ± 12 mPa·s
- viscosity (323.15 K, x1 = 0.9): 89 ± 11 mPa·s
- mass density (323.15 K, x1 = 0.25): 1053.4 ± 4 kg/m3
- mass density (323.15 K, x1 = 0.5): 1062.8 ± 4 kg/m3
- mass density (323.15 K, x1 = 0.749): 1078.3 ± 4 kg/m3
- mass density (328.15 K, x1 = 0.25): 1049.9 ± 4 kg/m3
- mass density (328.15 K, x1 = 0.5): 1059.4 ± 4 kg/m3
- mass density (328.15 K, x1 = 0.749): 1075 ± 4 kg/m3
- mass density (333.15 K, x1 = 0.25): 1046.4 ± 4 kg/m3
- mass density (333.15 K, x1 = 0.5): 1056 ± 4 kg/m3
- mass density (333.15 K, x1 = 0.749): 1071.7 ± 4 kg/m3
- mass density (338.15 K, x1 = 0.25): 1042.9 ± 4 kg/m3
- mass density (338.15 K, x1 = 0.5): 1052.6 ± 4 kg/m3
- mass density (338.15 K, x1 = 0.749): 1068.3 ± 4 kg/m3
- mass density (343.15 K, x1 = 0.25): 1039.4 ± 4 kg/m3
- mass density (343.15 K, x1 = 0.5): 1049.2 ± 4 kg/m3
- mass density (343.15 K, x1 = 0.749): 1065 ± 4 kg/m3
- mass density (348.15 K, x1 = 0.25): 1035.9 ± 4 kg/m3
- mass density (348.15 K, x1 = 0.5): 1045.8 ± 4 kg/m3
- mass density (348.15 K, x1 = 0.749): 1061.7 ± 4 kg/m3
- mass density (353.15 K, x1 = 0.25): 1032.5 ± 4 kg/m3
- mass density (353.15 K, x1 = 0.5): 1042.4 ± 4 kg/m3
- mass density (353.15 K, x1 = 0.749): 1058.5 ± 4 kg/m3
